Source: article PMC6009935 (Journal of Enzyme Inhibition and Medicinal Chemistry, 2017)

Key:
[1] = test system: thermal nociception; experiment: Hot plate test after i.c.v. injection; assay type: in vivo, mice; conditions: i.c.v. 1, 5 and 10 µg/mouse; 15-90 min
Description: (§1) In vivo nociception tests
(§2) Male CD-1 mice (Harlan, Italy) weighting 25-30 g were used for all experiments. Mice were housed for at least 1 week before the experimental sessions in colony cages (7 mice in each cage) under standard light (from 7.00 a.m. to 7.00 p.m.), temperature (21±1°C), relative humidity (60±10%) with food and water available ad libitum. The research protocol was approved by the Service for Biotechnology and Animal Welfare of the Istituto Superiore di Sanità and authorized by the Italian Ministry of Health, according to Legislative Decree 26/14, which implemented the European Directive 2010/63/UE on laboratory animal protection in Italy. […]
(§3) In the case of hot plate test, the thermal nociception was assessed with a commercially available apparatus consisting in a metal plate 25x25 cm (Ugo Basile, Italy) heated to a constant temperature of 55±0.1°C, on which a plastic cylinder (20 cm diameter, 18 cm high) was placed. The time of latency (s) was recorded from the moment the animal was inserted inside the cylinder up to when it licked its paws or jerked them off the hot plate; jumped off the hot plate; the latency exceeded the cut-off time of 60 s. The baseline was calculated as mean of three readings recorded before testing at intervals of 15-30 min. The time course of latency was then determined at 15, 30, 45, 60, and 90 min after treatment. […]

[2] = test system: thermal nociception; experiment: Tail flick test after i.c.v. injection; assay type: in vivo, mice; conditions: i.c.v. 1, 5 and 10 µg/mouse; 15-90 min
Description: as §1, §2, §3

Cc1c(C(=O)NC2CCN(C(=O)[C@H](Cc3ccccc3)NC(=O)CNC(=O)[C@@H](C)NC(=O)[C@@H](N)Cc3ccc(O)cc3)CC2)nn(-c2ccc(Cl)cc2Cl)c1-n1cccc1 [Compound 9]
behavioral response to thermal nociceptive stimuli, hot plate test [1]: no difference in treatments
latency of the nociceptive response, tail flick test [2]: absence of effect
